pEC50: −log10 of the molar value. Read-outs that look alike come from different tables or passages of the source.
Target: T1, human β3-AR (Homo sapiens, UniProt P13945)
T1 construct: expressed in transfected cells; host or cells: CHO (Chinese hamster ovary) cells, stably transfected
Assay: cAMP functional agonist assay (LANCE TR-FRET) in CHO cells expressing cloned human β3-AR
Format: cell-based
Settings: for Fold drop in potency vs. 2-chloropyridine analog: EC50 of comparative example divided by EC50 of corresponding 2-chloropyridine compound; for Human β3-AR Agonist Activity (%): percent maximum activation relative to isoproterenol

[1] = CHO cells stably expressing cloned human β3-adrenoceptor, cAMP release, read-out: Human β3-AR Agonism EC50

T1 sequence (P13945 whole entry): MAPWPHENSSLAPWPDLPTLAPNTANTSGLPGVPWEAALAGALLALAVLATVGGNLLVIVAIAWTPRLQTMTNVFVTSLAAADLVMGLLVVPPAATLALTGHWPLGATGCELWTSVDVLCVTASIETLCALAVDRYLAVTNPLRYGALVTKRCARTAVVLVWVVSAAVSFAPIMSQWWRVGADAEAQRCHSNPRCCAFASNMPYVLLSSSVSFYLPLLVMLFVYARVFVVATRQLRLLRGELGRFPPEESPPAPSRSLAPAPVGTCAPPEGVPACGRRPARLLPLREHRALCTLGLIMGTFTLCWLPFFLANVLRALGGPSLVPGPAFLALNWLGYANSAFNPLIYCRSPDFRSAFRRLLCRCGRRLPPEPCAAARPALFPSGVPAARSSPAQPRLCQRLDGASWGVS

| SMILES | pEC50 [1] | Fold drop in potency vs. 2-chloropyridine analog | Human β3-AR Agonist Activity (%) | pEC50 |
| --- | --- | --- | --- | --- |
| CN(Cc1cccnc1)C(=O)c1ccc(C[C@@H]2CC[C@H]([C@H](O)c3ccc(F)cc3)N2)cc1 [Example 21-F, 4-(((2S,5R)-5-((R)-(4-fluorophenyl)(hydroxy)methyl)pyrrolidin-2-yl)methyl)-N-methyl-N-(pyridin-3-ylmethyl)benzamide] | 7.92 | 2.9 fold | 94% |  |
| CN(Cc1cccnc1)C(=O)c1ccc(C[C@@H]2CC[C@H]([C@H](O)c3ccc(Cl)cc3)N2)cc1 [Example 21-G, 4-(((2S,5R)-5-((R)-(4-chlorophenyl)(hydroxy)methyl)pyrrolidin-2-yl)methyl)-N-methyl-N-(pyridin-3-ylmethyl)benzamide] | 8.22 | 1.3 fold | 88% |  |
| CN(Cc1cccnc1)C(=O)c1ccc(C[C@@H]2CC[C@H]([C@H](O)c3cccnc3)N2)cc1 [Example 21-H, 4-(((2S,5R)-5-((R)-hydroxy(pyridin-3-yl)methyl)pyrrolidin-2-yl)methyl)-N-methyl-N-(pyridin-3-ylmethyl)benzamide] | 7.42 | 8.8 fold | 85% |  |
| CN(Cc1cccnc1)C(=O)c1ccc(C[C@@H]2CC[C@H]([C@H](O)c3ccc(C4CC4)nc3)N2)cc1 [Example 21-I, 4-(((2S,5R)-5-((R)-(6-cyclopropylpyridin-3-yl)(hydroxy)methyl)pyrrolidin-2-yl)methyl)-N-methyl-N-(pyridin-3-ylmethyl)benzamide] | 7.72 | 4.4 fold | 71% |  |
| CC(=O)c1ccc([C@@H](O)[C@H]2CC[C@@H](Cc3ccc(C(=O)N(C)Cc4cccnc4)cc3)N2)cn1 [Example 21-J, 4-(((2S,5R)-5-((R)-(6-acetylpyridin-3-yl)(hydroxy)methyl)pyrrolidin-2-yl)methyl)-N-methyl-N-(pyridin-3-ylmethyl)benzamide] | ≤ 5.00 | >2300 fold | 38% |  |
| CN(Cc1cccnc1)C(=O)c1ccc(C[C@@H]2CC[C@H]([C@H](O)c3ccc(C(N)=O)nc3)N2)cc1 [Example 21-K, 5-((R)-hydroxy((2R,5S)-5-(4-(methyl(pyridin-3-ylmethyl)carbamoyl)benzyl)pyrrolidin-2-yl)methyl)picolinamide] | 6.95 | 26.3 fold | 87% |  |
| Cc1nc(-c2ccc([C@@H](O)[C@H]3CC[C@@H](Cc4ccc(C(=O)N(C)Cc5cccnc5)cc4)N3)cn2)no1 [Example 21-L, 4-(((2S,5R)-5-((R)-hydroxy(6-(5-methyl-1,2,4-oxadiazol-3-yl)pyridin-3-yl)methyl)pyrrolidin-2-yl)methyl)-N-methyl-N-(pyridin-3-ylmethyl)benzamide] | ≤ 5.00 | >2300 fold | 3% |  |
| CN(Cc1cccnc1)C(=O)c1ccc(C[C@@H]2CC[C@H]([C@H](O)c3ccc(N)nc3)N2)cc1 [Example 21-M, 4-(((2S,5R)-5-((R)-(6-aminopyridin-3-yl)(hydroxy)methyl)pyrrolidin-2-yl)methyl)-N-methyl-N-(pyridin-3-ylmethyl)benzamide] | 7.70 | 4.7 fold | 97% |  |
| CN(Cc1cccnc1)C(=O)c1ccc(C[C@@H]2CC[C@H]([C@H](O)c3ccc(NC4CC4)nc3)N2)cc1 [Example 21-N, 4-(((2S,5R)-5-((R)-(6-(cyclopropylamino)pyridin-3-yl)(hydroxy)methyl)pyrrolidin-2-yl)methyl)-N-methyl-N-(pyridin-3-ylmethyl)benzamide] | ≤ 5.00 | >2300 fold | 27% |  |
| CN(Cc1cccnc1)C(=O)c1ccc(C[C@@H]2CC[C@H]([C@H](O)c3ccc(C#N)nc3)N2)cc1 [Example 21-O, 4-(((2S,5R)-5-((R)-(6-cyanopyridin-3-yl)(hydroxy)methyl)pyrrolidin-2-yl)methyl)-N-methyl-N-(pyridin-3-ylmethyl)benzamide] | 6.56 | 64.3 fold | 77% |  |
| COc1ccc([C@@H](O)[C@H]2CC[C@@H](Cc3ccc(C(=O)N(C)Cc4cccnc4)cc3)N2)cn1 [Example 21-P, 4-(((2S,5R)-5-((R)-hydroxy(6-methoxypyridin-3-yl)methyl)pyrrolidin-2-yl)methyl)-N-methyl-N-(pyridin-3-ylmethyl)benzamide] | 7.62 | 5.7 fold | 93% |  |
| CN(Cc1cccnc1)C(=O)c1ccc(C[C@@H]2CC[C@H]([C@H](O)c3cncc(F)c3)N2)cc1 [Example 21-R, 4-(((2S,5R)-5-((R)-(5-fluoropyridin-3-yl)(hydroxy)methyl)pyrrolidin-2-yl)methyl)-N-methyl-N-(pyridin-3-ylmethyl)benzamide] | 7.24 | 13.3 fold | 91% |  |
| Cc1cc([C@@H](O)[C@H]2CC[C@@H](Cc3ccc(C(=O)N(C)Cc4cccnc4)cc3)N2)cnc1Cl [Example 21-S, 4-(((2S,5R)-5-((R)-(6-chloro-5-methylpyridin-3-yl)(hydroxy)methyl)pyrrolidin-2yl)methyl)-N-methyl-N-(pyridin-3-ylmethyl)benzamide] | 6.51 | 72.1 fold | 84% |  |
| CCN(Cc1cccnc1)C(=O)c1ccc(C[C@@H]2CC[C@H]([C@H](O)c3ccc(Cl)nc3)N2)cc1 [Example 22-A, 4-(((2S,5R)-5-((R)-(6-chloropyridin-3-yl)(hydroxy)methyl)pyrrolidin-2-yl)methyl)-N-ethyl-N-(pyridin-3-ylmethyl)benzamide] | 8.30 |  | 62% |  |
| CCN(Cc1cccnc1)C(=O)c1ccc(C[C@@H]2CC[C@H]([C@H](O)c3ccccc3)N2)cc1 [Example 22-B, N-ethyl-4-(((2S,5R)-5-((R)-hydroxy(phenyl)methyl)pyrrolidin-2-yl)methyl)-N-(pyridin-3-ylmethyl)benzamide] | 8.00 | 2.0 fold | 103% |  |
| CC(c1cccnc1)N(C)C(=O)c1ccc(C[C@@H]2CC[C@H]([C@H](O)c3ccc(Cl)nc3)N2)cc1 (stereo partly drawn) [Example 23-A, 4-(((2S,5R)-5-((R)-(6-chloropyridin-3-yl)(hydroxy)methyl)pyrrolidin-2-yl)methyl)-N-methyl-N-(1-(pyridin-3-yl)ethyl)benzamide] |  |  | 96% | 8.70 |
| CC(c1cccnc1)N(C)C(=O)c1ccc(C[C@@H]2CC[C@H]([C@H](O)c3ccccc3)N2)cc1 (stereo partly drawn) [Example 23-B, 4-(((2S,5R)-5-((R)-hydroxy(phenyl)methyl)pyrrolidin-2-yl)methyl)-N-methyl-N-(1-(pyridin-3-yl)ethyl)benzamide] | 8.52 | 1.5 fold | 93% |  |
